Laboratory results from patent publication US20250346600A1, “TRICYCLIC DERIVATIVES AND RELATED USES” (MOMA Therapeutics, Inc., priority 2023, published 2025).

How the values were obtained:
[1] = test system: HT29 cells; assay: HT29 (MSS) 7 day viability, CellTiter Glo; type: cell-based; conditions: Homo sapiens, HT-29, 168 h, 7 days, read-out: HT29 (MSS) Viability 7 Day CTGAbs AC50
In short: (§1)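 HCT116 (50 cells/well) or HT29 (500 cells/well) exposed 7 days at 37° C, 5% CO2, to 10-point 3-fold compound dilutions. Viability measured by CellTiter Glo luminescence, background from cell-free wells; IC50 from four-parameter logistic fit, geometric mean of at least 2 replicates.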

[2] = test system: HCT116 cells; assay: HCT116 (MSI) 7 day viability, CellTiter Glo; type: cell-based; conditions: Homo sapiens, HCT-116, 168 h, 7 days, read-out: HCT116 (MSI) Viability 7 Day Abs AC50
In short: as §1

[3] = biological target: T1, Full length WRN protein (aa 2-1432) (Homo sapiens (Human), UniProt Q14191); assay: WRN ATPase ADP-Glo biochemical assay, Assay Format A (10 μM ATP); conditions: 0.25 nM WRN, 100 nM C6.18 ssDNA, 30 min preincubation, read-out: ATPase ADPGlo AC50 (uM)- Assay Format A
T1 sequence (Q14191 2-1432): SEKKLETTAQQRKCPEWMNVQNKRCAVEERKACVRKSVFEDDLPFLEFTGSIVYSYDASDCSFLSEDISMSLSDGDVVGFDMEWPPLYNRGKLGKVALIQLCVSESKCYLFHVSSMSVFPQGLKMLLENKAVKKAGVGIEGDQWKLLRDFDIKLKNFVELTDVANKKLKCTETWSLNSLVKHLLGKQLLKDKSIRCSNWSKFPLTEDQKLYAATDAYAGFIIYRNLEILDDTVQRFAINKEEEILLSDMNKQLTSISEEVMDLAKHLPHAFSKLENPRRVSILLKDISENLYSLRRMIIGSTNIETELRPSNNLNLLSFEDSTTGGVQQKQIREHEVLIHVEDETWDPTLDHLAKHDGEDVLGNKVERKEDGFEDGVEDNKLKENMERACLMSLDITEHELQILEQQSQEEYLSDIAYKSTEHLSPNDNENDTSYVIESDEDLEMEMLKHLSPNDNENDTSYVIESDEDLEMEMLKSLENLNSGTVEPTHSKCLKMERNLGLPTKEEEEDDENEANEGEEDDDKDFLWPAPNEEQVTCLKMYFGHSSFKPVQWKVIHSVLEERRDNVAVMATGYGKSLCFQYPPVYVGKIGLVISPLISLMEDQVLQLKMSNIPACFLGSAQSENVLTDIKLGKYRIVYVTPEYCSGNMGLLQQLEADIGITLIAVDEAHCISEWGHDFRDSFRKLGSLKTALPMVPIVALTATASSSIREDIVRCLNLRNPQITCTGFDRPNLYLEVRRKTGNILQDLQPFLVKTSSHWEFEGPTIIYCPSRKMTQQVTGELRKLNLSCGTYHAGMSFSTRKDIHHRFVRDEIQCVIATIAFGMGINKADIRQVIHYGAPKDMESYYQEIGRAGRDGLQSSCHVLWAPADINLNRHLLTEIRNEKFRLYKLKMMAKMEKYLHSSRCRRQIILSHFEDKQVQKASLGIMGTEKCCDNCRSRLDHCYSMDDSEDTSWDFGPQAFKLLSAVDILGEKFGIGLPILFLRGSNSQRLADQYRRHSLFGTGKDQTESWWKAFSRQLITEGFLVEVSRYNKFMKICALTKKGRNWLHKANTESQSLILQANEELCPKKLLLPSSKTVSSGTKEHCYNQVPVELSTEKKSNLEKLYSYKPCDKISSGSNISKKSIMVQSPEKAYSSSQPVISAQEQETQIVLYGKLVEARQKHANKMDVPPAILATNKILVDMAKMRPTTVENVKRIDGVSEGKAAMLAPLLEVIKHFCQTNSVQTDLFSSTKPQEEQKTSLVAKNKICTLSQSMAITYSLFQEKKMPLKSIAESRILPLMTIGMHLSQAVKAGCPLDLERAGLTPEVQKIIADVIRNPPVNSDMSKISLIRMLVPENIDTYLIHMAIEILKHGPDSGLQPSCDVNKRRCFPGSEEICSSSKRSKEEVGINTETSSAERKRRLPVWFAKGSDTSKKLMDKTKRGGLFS
Source text: Full length Werner helicase construct (Uniprot: Q14191) with an N-terminal FLAG-AVI-TEV tag was expressed using the Sf9 cell/baculovirus expression system. The harvested cell pellet was resuspended and lysed in a glass homogenizer. After insoluble material was removed by centrifugation, the helicase protein was first purified with FLAG affinity resin and then further purified through a size-exclusion chromatography column. Peak fractions containing the purified protein were concentrated, split into aliquots and frozen in liquid nitrogen to be thawed before use. Biochemical Assay Description (ATPase activity)-Assay Format A WRN activity was measured using an ATPase assay. Full length WRN protein (aa 2-1432) (production described separately) was used for the biochemical activity assays. The 39-mer ssDNA “C6.18” [NT] was purchased from IDT and used as a substrate. Quantification of ATP hydrolysis was evaluated using the ADP-Glo assay kit (Promega, Madison, WI). An enzyme titration time-course was performed to determine the optimal assay conditions. […] To evaluate the inhibitory effects of the compounds, 11-point 3-fold serial dilutions were prepared in DMSO. 50 nL of each concentration in duplicate was preincubated for 30 minutes in a 384-well microplate (Greiner #784075) with 5 μL of 0.5 nM WRN in assay buffer. The reaction was initiated by adding 5 μL of 200 nM C6.18 DNA with 20 μM ATP and was allowed to proceed for 30 minutes at room temperature. The reaction was stopped with 10 μL ADP-Glo reagent for 1 hour to remove unreacted ATP. Lastly, 20 μL ATP detection reagent was added and incubated for 1 hour to generate the luminescence signal. Control wells included “high controls” with no inhibition (DMSO, no compound) and “low controls” with maximum inhibition (no WRN). Luminescence was recorded on a PHERAstar (BMG Labtech, Ortenberg, Germany). Data was fit using the “Smart Fit” method within the Genedata Screener Software (Basel, Switzerland) to obtain IC50 values using four-parameter fits. Reported IC50s are the geometric means of at least two independent trials.

[4] = biological target: T1, Full length WRN protein (aa 2-1432); assay: WRN ATPase ADP-Glo biochemical assay, Assay Format B (100 μM ATP); conditions: 0.25 nM WRN, 100 nM C6.18 ssDNA, 60 min preincubation, read-out: ATPase ADPGlo AC50 (uM)- Assay Format B

| AC50 [3] [µM] | AC50 [4] [µM] | Compound | AC50 [1] [nM] | AC50 [2] [nM] |
| --- | --- | --- | --- | --- |
| < 0.0015 | 0.005 to 0.015 | C=CC(=O)N1CCc2nn(-c3ccc(C4CC4)cc3O)c3c2C(C1)N(C(=O)c1ccc(C(F)(F)F)cc1N)CC3 (stereo not drawn) [Compound 245, 1-(5-(2-amino-4-(trifluoromethyl)benzoyl)-2-(4-cyclopropyl-2-hydroxyphenyl)-2,3,4,5,5a,6,8,9-octahydro-7H-1,2,5,7-tetraazabenzo[cd]azulen-7-yl)prop-2-en-1-one] | > 3000 | 1 to 100 |
| 0.0015 to 0.005 | 0.005 to 0.015 | C=CC(=O)N1CCc2nn(-c3ccc(C4CC4)cc3)c3c2C(C1)N(C(=O)c1ccc(Br)nc1N)CC3 (stereo not drawn) [Compound 117, 1-(5-(2-amino-6-bromonicotinoyl)-2-(4-cyclopropylphenyl)-2,3,4,5,5a,6,8,9-octahydro-7H-1,2,5,7-tetraazabenzo[cd]azulen-7-yl)prop-2-en-1-one] | > 3000 | 1 to 100 |
| < 0.0015 | 0.0015 to 0.005 | C=CC(=O)N1CCc2nn(-c3ccc(C4CC4)cc3)c3c2C(C1)N(C(=O)c1cnc(Cl)c(F)c1N)CC3 (stereo not drawn) [Compound 181, 1-(5-(4-amino-6-chloro-5-fluoronicotinoyl)-2-(4-cyclopropylphenyl)-2,3,4,5,5a,6,8,9-octahydro-7H-1,2,5,7-tetraazabenzo[cd]azulen-7-yl)prop-2-en-1-one] | > 3000 | 1 to 100 |
| 0.015 to 0.055 |  | C=CC(=O)N1CCc2nn(-c3ccc(C4CC4)cc3)c3c2C(C1)N(C(=O)c1ccc(C2(C#N)CC2)nc1)CC3 (stereo not drawn) [Compound 119, 1-(5-(7-acryloyl-2-(4-cyclopropylphenyl)-3,4,5,5a,6,7,8,9-octahydro-2H-1,2,5,7-tetraazabenzo[cd]azulene-5-carbonyl)pyridin-2-yl)cyclopropane-1-carbonitrile] | > 3000 | > 1000 |

The remaining lines, values behind:

| Compound | AC50 [3] [µM] | AC50 [4] [µM] | AC50 [1] [nM] | AC50 [2] [nM] |
| --- | --- | --- | --- | --- |
| C=CC(=O)N1CCc2nn(-c3ccc(C4CCC4)cc3O)c3c2C(C1)N(C(=O)c1ncc(Br)c2[nH]cnc12)CC3 (stereo not drawn) [Compound 95, 1-(5-(7-bromo-1H-imidazo[4,5-c]pyridine-4-carbonyl)-2-(4-cyclobutyl-2-hydroxyphenyl)-2,3,4,5,5a,6,8,9-octahydro-7H-1,2,5,7-tetraazabenzo[cd]azulen-7-yl)prop-2-en-1-one] | < 0.0015 | 0.0015 to 0.005 | > 3000 | 1 to 100 |
| C=CC(=O)N1CCc2nn(-c3ccc(C(C)C)cc3O)c3c2C(C1)N(C(=O)c1cnc(Br)c2[nH]cnc12)CC3 (stereo not drawn) [Compound 22, 1-(5-(4-bromo-3H-imidazo[4,5-c]pyridine-7-carbonyl)-2-(2-hydroxy-4-isopropylphenyl)-2,3,4,5,5a,6,8,9-octahydro-7H-1,2,5,7-tetraazabenzo[cd]azulen-7-yl)prop-2-en-1-one] | 0.0015 to 0.005 | 0.015 to 0.055 | > 3000 | 250 to 500 |
| C=CC(=O)N1CCOc2nn(-c3ccc(C4CC4)cc3)c3c2C(C1)N(C(=O)c1ccc(C(F)(F)F)c2[nH]ncc12)CC3 (stereo not drawn) [Compound 50, 1-(2-(4-cyclopropylphenyl)-5-(7-(trifluoromethyl)-1H-indazole-4-carbonyl)-2,3,4,5,5a,6,8,9-octahydro-7H-10-oxa-1,2,5,7-tetraazacycloocta[cd]inden-7-yl)prop-2-en-1-one] | 0.0015 to 0.005 | 0.015 to 0.055 | > 3000 | 100 to 250 |
| C=CC(=O)N1CCc2nn(-c3ccc(C4CCC4)cc3O)c3c2C(C1)N(C(=O)c1cnc(C(F)(F)F)c2[nH]ncc12)CC3 (stereo not drawn) [Compound 151, 1-(2-(4-cyclobutyl-2-hydroxyphenyl)-5-(7-(trifluoromethyl)-1H-pyrazolo[3,4-c]pyridine-4-carbonyl)-2,3,4,5,5a,6,8,9-octahydro-7H-1,2,5,7-tetraazabenzo[cd]azulen-7-yl)prop-2-en-1-one] | < 0.0015 |  | > 3000 | 1 to 100 |
